Here are results for 12 compounds from patent US10233183B1, “13-hydroxysparteine cinnamic acid derivatives with anti-tumor activities and a method of preparing the same” (SHAANXI UNIVERSITY OF SCIENCE AND TECHNOLOGY, priority 2018, dated 2019).

Molecules are shown by their SMILES.

Holding throughout (format): cell-based
The subject of assay [1] is non-small cell lung cancer cells (H1975). The experiment in a line: MTT tumor cell proliferation inhibition test, H1975. The following applies: Homo sapiens, NCI-H1975, 48 hours treatment, read-out: Half Inhibitory Concentration IC50, H1975. From the text: (§1) The compounds of the present invention were subjected to tumor cell proliferation inhibition test, and conventional MTT method was used. Cell lines used: non-small cell lung cancer cells (H1975), human hepatoma cells (HepG2), human glioma cells (U251), human gastric adenocarcinoma cells (AGS), human breast cancer cells (1590). The culture medium was DMEM+15% NBS+double antibody. […] Antitumor cytarabine (Ara-C) was used as control solution, prepared under the same condition. Cell culture: adherent growth Tumor cells were cultured in 1640 medium containing 10% inactivated neonatal bovine serum and penicillin, streptomycin (1 million U/L), placed in carbon dioxide incubator at 37° C., 5% CO2, and saturated humidity. Cells were treated serially passaged 2-3 times. The first culture was washed with PBS 2 times, and digested with trypsin. Fresh culture medium was added evenly, cells were adjusted to a appropriate concentration and transferred into a new culture flask. Cell in an exponential phase were chosen for the tests. MTT Assay for Cell Viability and IC50 Determination: Experimental Principle: Living cells mitochondria in the dehydrogenase can reduce yellow MTT to water-insoluble blue-violet product MT (MTT formazan), deposited in the cells. The amount of production is proportional to the number of living cells. […] DMSO can dissolve blue violet crystals, and the color depth is proportional to the amount contained, so the absorbance measured by the microplate reader can reflect the cell viability. Methods: The exponential phase cells were digested and counted and seeded in 96-well plates at a density of 2×10^4/mL at 100 μl per well. […] After another 4 hours, the supernatant was discarded, and 100 μl of DMSO was added to each well. After mixing, the absorbance was measured at 570 nm using a microplate reader. An IC50 calculation software was used to determine the half inhibitory concentration (IC50).

The subject of assay [2] is human breast cancer cells (1590). The experiment in a line: MTT tumor cell proliferation inhibition test, 1590. The following applies: 48 hours treatment, 1590 cells, read-out: Half Inhibitory Concentration IC50, 1590.
Excerpt: as §1

Assay [3] concerns human hepatoma cells (HepG2). Nature of the assay: MTT tumor cell proliferation inhibition test, HepG2. Conditions: 48 hours treatment, read-out: Half Inhibitory Concentration IC50, HepG2.
Excerpt: as §1

The subject of assay [4] is human gastric adenocarcinoma cells (AGS). The experiment in a line: MTT tumor cell proliferation inhibition test, AGS. The following applies: 48 hours treatment, read-out: Half Inhibitory Concentration IC50, AGS.
Excerpt: as §1

In assay [5] the test system is human glioma cells (U251). The experiment in a line: MTT tumor cell proliferation inhibition test, U251. The following applies: U-251, 48 hours treatment, read-out: Half Inhibitory Concentration IC50, U251.
Excerpt: as §1

Assay [6] concerns different cell lines. Nature of the assay: MTT tumor cell proliferation inhibition test, overall verdict. The following applies: summary in words of Table 1, different cell lines.
Excerpt: as §1

As to `Nc1ccn([C@@H]2O[C@H](CO)[C@@H](O)[C@@H]2O)c(=O)n1` [Ara-C, cytarabine, reference compound], the IC50 was 19.2 ± 0.39 µM in assay [1]; 76.3 ± 2.48 µM in assay [2]; 20.6 ± 0.54 µM in assay [3]; above 100 µM in assay [4]; 39.2 ± 0.54 µM in assay [5].
With `O=C(/C=C\c1ccccc1)OC1CCN2[C@@H]3C[C@@H](C[C@@H]2C1)N1CCCC[C@@H]1C3` (stereo partly drawn) [Compound A, (Z)-(6S,7aR,13S,14aR)-tetradecahydro-6,13-methanodipyrido[1,2-a:1′,2′-e][1,5]diazocin-2-yl 3-phenylacrylate], the “in vitro antitumor activities” value in assay [6] is reported as “good in vitro antitumor activities”. Further, the IC50 in assay [1] was 16.9 ± 1.36 µM; in assay [2] it was 32 ± 1.69 µM; in assay [3], 36.6 ± 3.01 µM; in assay [4], 20.3 ± 1.12 µM; in assay [5], above 100 µM.
On to `O=C(/C=C\c1ccc(O)cc1)OC1CCN2[C@@H]3C[C@@H](C[C@@H]2C1)N1CCCC[C@@H]1C3` (stereo partly drawn) [Compound B, (Z)-(6S,7aR,13S,14aR)-tetradecahydro-6,13-methanodipyrido[1,2-a:1′,2′-e][1,5]diazocin-2-yl 3-(4-hydroxyphenyl)acrylate], for which the IC50 in assay [1] is above 100 µM; in assay [2], above 100 µM; in assay [3], 53.69 ± 0.34 µM; in assay [4], above 100 µM; in assay [5], 74.98 ± 0.49 µM.
`O=C(/C=C\c1cccc(O)c1)OC1CCN2[C@@H]3C[C@@H](C[C@@H]2C1)N1CCCC[C@@H]1C3` (stereo partly drawn) [Compound C, (Z)-(6S,7aR,13S,14aR)-tetradecahydro-6,13-methanodipyrido[1,2-a:1′,2′-e][1,5]diazocin-2-yl 3-(3-hydroxyphenyl)acrylate]: the “in vitro antitumor activities” value in assay [6] is “good in vitro antitumor activities”. Further, the IC50 amounted to 23.7 ± 2.37 µM in assay [1]; 43.2 ± 0.95 µM in assay [2]; 73.55 ± 0.49 µM in assay [3]; 26.3 ± 1.48 µM in assay [4]; 5.49 ± 1.98 µM in assay [5].
As to `O=C(/C=C\c1ccc(O)c(O)c1)OC1CCN2[C@@H]3C[C@@H](C[C@@H]2C1)N1CCCC[C@@H]1C3` (stereo partly drawn) [Compound E, (Z)-(6S,7aR,13S,14aR)-tetradecahydro-6,13-methanodipyrido[1,2-a:1′,2′-e][1,5]diazocin-2-yl 3-(3,4-dihydroxyphenyl)acrylate], in assay [6], the “in vitro antitumor activities” value is “good in vitro antitumor activities”. The IC50 in assay [1] was 43.1 ± 1.24 µM; in assay [2], 36.2 ± 1.98 µM; in assay [3] it was above 100 µM; in assay [4] it was above 100 µM; in assay [5] it was 42.2 ± 0.88 µM.
For the compound `COc1cc(/C=C\C(=O)OC2CCN3[C@@H]4C[C@@H](C[C@@H]3C2)N2CCCC[C@@H]2C4)ccc1O` (stereo partly drawn) [Compound F, (Z)-(6S,7aR,13S,14aR)-tetradecahydro-6,13-methanodipyrido[1,2-a:1′,2′-e][1,5]diazocin-2-yl 3-(4-hydroxy-3-methoxyphenyl)acrylate], the IC50 in assay [1] was above 100 µM; in assay [2], 88.6 ± 2.12 µM; in assay [3] it was above 100 µM; in assay [4], above 100 µM; in assay [5], above 100 µM.
Regarding `COc1cc(/C=C\C(=O)OC2CCN3[C@@H]4C[C@@H](C[C@@H]3C2)N2CCCC[C@@H]2C4)cc(OC)c1O` (stereo partly drawn) [Compound G, (Z)-(6S,7aR,13S,14aR)-tetradecahydro-6,13-methanodipyrido[1,2-a:1′,2′-e][1,5]diazocin-2-yl 3-(4-hydroxy-3,5-dimethoxyphenyl)acrylate], the “in vitro antitumor activities” value in assay [6] is “good in vitro antitumor activities”. For the same compound, the IC50 was 55.48 ± 0.48 µM in assay [1]; above 100 µM in assay [2]; above 100 µM in assay [3]; 59.4 ± 0.97 µM in assay [4]; 37 ± 1.24 µM in assay [5].
On to `Cc1ccc(/C=C\C(=O)OC2CCN3[C@@H]4C[C@@H](C[C@@H]3C2)N2CCCC[C@@H]2C4)cc1` (stereo partly drawn) [Compound H, (Z)-(6S,7aR,13S,14aR)-tetradecahydro-6,13-methanodipyrido[1,2-a:1′,2′-e][1,5]diazocin-2-yl 3-(p-tolyl)acrylate], for which the “in vitro antitumor activities” value in assay [6] is “good in vitro antitumor activities”. In addition, the IC50 in assay [1] is 29.9 ± 1.59 µM; in assay [2] it was above 100 µM; in assay [3] it was 51.1 ± 1.44 µM; in assay [4], 35.7 ± 2.58 µM; in assay [5], 75.4 ± 0.897 µM.
For `Cc1cc(/C=C\C(=O)OC2CCN3[C@@H]4C[C@@H](C[C@@H]3C2)N2CCCC[C@@H]2C4)ccc1O` (stereo partly drawn) [Compound I, (Z)-(6S,7aR,13S,14aR)-tetradecahydro-6,13-methanodipyrido[1,2-a:1′,2′-e][1,5]diazocin-2-yl 3-(4-hydroxy-3-methylphenyl)acrylate], the “in vitro antitumor activities” value in assay [6] is “good in vitro antitumor activities”. In addition, the IC50 was above 100 µM in assay [1]; above 100 µM in assay [2]; 58.7 ± 1.78 µM in assay [3]; 32.59 ± 0.29 µM in assay [4]; 66.9 ± 1.84 µM in assay [5].
In the case of `Cc1cccc(/C=C\C(=O)OC2CCN3[C@@H]4C[C@@H](C[C@@H]3C2)N2CCCC[C@@H]2C4)c1` (stereo partly drawn) [Compound J, (Z)-(6S,7aR,13S,14aR)-tetradecahydro-6,13-methanodipyrido[1,2-a:1′,2′-e][1,5]diazocin-2-yl 3-(m-tolyl)acrylate], the IC50 is 65 ± 1.89 µM in assay [1]; 65.43 ± 0.47 µM in assay [2]; 88.5 ± 1.26 µM in assay [3]; above 100 µM in assay [4]; 74.6 ± 2.94 µM in assay [5].
On the same counts, the results for `Cc1ccccc1/C=C\C(=O)OC1CCN2[C@@H]3C[C@@H](C[C@@H]2C1)N1CCCC[C@@H]1C3` (stereo partly drawn) [Compound K, (Z)-(6S,7aR,13S,14aR)-tetradecahydro-6,13-methanodipyrido[1,2-a:1′,2′-e][1,5]diazocin-2-yl 3-(o-tolyl)acrylate] are 89.6 ± 1.34 µM, above 100 µM, above 100 µM, 69.81 ± 0.06 µM and above 100 µM.
For the compound `O=C(/C=C\c1ccc(Cl)cc1)OC1CCN2[C@@H]3C[C@@H](C[C@@H]2C1)N1CCCC[C@@H]1C3` (stereo partly drawn) [Compound M, (Z)-(6S,7aR,13S,14aR)-tetradecahydro-6,13-methanodipyrido[1,2-a:1′,2′-e][1,5]diazocin-2-yl 3-(4-chlorophenyl)acrylate], the “in vitro antitumor activities” value in assay [6] is given as “good in vitro antitumor activities”. The IC50 in assay [1] is above 100 µM; in assay [2] it was 10.6 ± 1.33 µM; in assay [3], 26.8 ± 1.24 µM; in assay [4], 55.54 ± 0.044 µM; in assay [5] it was 45.9 ± 1.82 µM.
